Measurements taken from US12708620B2, “Prodrugs and medical uses thereof” (priority 2018, dated 2026).

How the values were obtained:
[1] = stability to gamma irradiation sterilization; settings: powder filled vial sterilized under gamma irradiation
[2] = test system: MiaPaCa-2 tumor xenograft; assay: pancreatic cancer xenograft model; assay type: in vivo, BALB/c Nude Mice; settings: MiaPaCa-2 xenograft, 600 mg/kg IP, hypoxic status absent, methanesulfonate
Protocol: (§1) All animal models were established as xenograft model in BALB/c Nude Mice (6-8 weeks old, 17-23 grams, maintained in standard conditions and diet), following approved IACUC (Institutional Animal Care and Use Committees) protocols. Cpd.11 Ms was formulated using 2% dimethyl sulfoxide (DMSO in water for injection, starting from a Cpd.11 Ms main preparation (100-60 mg/ml in 2% DMSO in water for injection).
After tumor cell inoculation, the animals were checked daily for morbidity and mortality. Before commencement of treatment all animals were weighed and the tumor volumes were measured using a caliper. The treatments were started when the mean tumor size reached approx. 250 mm^3. […] At the time of routine monitoring, the animals were checked for any effects of tumor growth and treatments on normal behavior such as mobility, visual estimation of food and water consumption, body weight gain/loss (body weights were measured daily during the 5-day treatment and thrice weekly after treatment), eye/hair matting and any other abnormal effect. Death and observed clinical signs were recorded on the basis of the numbers of animals within each subset. […] The surrogate endpoint for survival was calculated and indicated as TVx4 (initial tumor volume times 4). […] All data were analyzed in SPSS (Statistical Product and Service Solutions) version 18.0 (IBM, Armonk, NY, U.S.). […]

PANC-1 tumor xenograft = assay: pancreatic cancer (PDAC) xenograft model; assay type: in vivo, BALB/c Nude Mice; settings: PANC-1 xenograft; for Anti-tumor effect: 600 mg/kg IP, hypoxic status confirmed, methanesulfonate, 600 mg/kg
Protocol: as §1
After tumor cell inoculation, the animals were checked daily for morbidity and mortality. Before commencement of treatment all animals were weighed and the tumor volumes were measured using a caliper. The treatments were started when the mean tumor size reached approx. 250 mm^3. Each treated/control group contained 10 mice that were randomly assigned and injected daily for 5 days. The date of tumor cell inoculation was denoted as day 0 (thus injections were performed at day 1, 2, 3, 4, and 5). At the time of routine monitoring, the animals were checked for any effects of tumor growth and treatments on normal behavior such as mobility, visual estimation of food and water consumption, body weight gain/loss (body weights were measured daily during the 5-day treatment and thrice weekly after treatment), eye/hair matting and any other abnormal effect. Death and observed clinical signs were recorded on the basis of the numbers of animals within each subset. Tumor volumes were measured daily during the 5-day treatment and thrice weekly after treatment in two dimensions using a caliper, and the volume was expressed in mm3 using the formula: V=0.5 a×b2 where a and b are the long and short diameters of the tumor, respectively. The entire procedures of dosing as well as tumor and body weight measurement were conducted in a Laminar Flow Cabinet. Individual mice were euthanized by cervical dislocation when the tumor size reached 1400-1600 mm3. The surrogate endpoint for survival was calculated and indicated as TVx4 (initial tumor volume times 4). Statistical analysis of difference in tumor volume among the groups was conducted at the end of experiment using Independent-Samples T Test. All data were analyzed in SPSS (Statistical Product and Service Solutions) version 18.0 (IBM, Armonk, NY, U.S.). P-values were rounded to three decimal places, with the exception that raw P-values less than 0.001 were stated as P<0.001. All tests were two-sided. P<0.05 was considered to be statistically significant.
For the MDA-MB-436 tumor (ATCC: HTB-130; Passage: P4) cells were maintained in vitro as a monolayer culture in L-15 medium supplemented with 10% heat inactivated fetal bovine serum at 37° C. in an atmosphere of 100% air. […] The cells growing in an exponential growth phase were harvested and counted for tumor inoculation. […]

[3] = test system: MDA-MB-468 tumor xenograft; assay: breast cancer (TNBC) xenograft model; assay type: in vivo, BALB/c Nude Mice; settings: MDA-MB-468 xenograft

For `CCN1CCN(C(=O)c2cc(N(CCBr)CCOS(C)(=O)=O)c(S(C)(=O)=O)cc2[N+](=O)[O-])CC1.CS(=O)(=O)O` [Cpd.11 Ms, 4-(5-((2-bromoethyl) (2-((methylsulfonyl)oxy)ethyl)amino)-4-(methylsulfonyl)-2-nitrobenzoyl)-1-ethylpiperazin-1-ium methanesulfonate], the “stability to sterilizing conditions” value [1] was “sufficiently stable”, the Anti-tumor effect ([2]; listed as Cpd.11Ms) was “No impact” and the Anti-tumor effect [2] was “not observed”. For the same compound, the Anti-tumor effect (PANC-1 tumor xenograft; single treatment cycle, listed as Cpd.11Ms) was “Clear impact,”, the Anti-tumor effect (PANC-1 tumor xenograft; single treatment cycle) was “significant tumour growth retardation” and the body weight loss (PANC-1 tumor xenograft; IP) was “without major body weight loss”. The “increase in median surrogate survival index” value (PANC-1 tumor xenograft; single treatment cycle, P=0.0018) was “approx. 50%”, the Anti-tumor effect ([3]; 200-800 mg/kg IP, hypoxic status confirmed) was “Strong impact,” and the “impact on hypoxia by pimonidazole immunohistochemical staining” value ([3]; 400-800 mg/kg from 1 to 5 consecutive days) was “clear impact”.
